Test results from patent publication EP0073997A1, “Substituted 2-amino-3,4-dihydro-pyridine derivatives, process for their preparation and their use in medicines” (BAYER AG, priority 1981, dated 1983).

System: Wistar-Ratten
Assay: Cholesterol load test: liver cholesterol after oral cholesterol load
Format: in vivo
Details: Dosis 10 mg/kg p.o.; given together with cholesterol in 0,75 % tragacanth suspension; liver cholesterol after 24 h
Method: Cholesterol- bzw. Fettbelastungstests wurden an nüchternen männlichen oder weiblichen Wistar-Ratten mit einem Körpergewicht zwischen 130-230 g durchgeführt.
Cholesterol-Belastung: • Cholesterol und die zu prüfende Substanz wurden in 0,75 %iger Traganth-Suspension gleichzeitig oral appliziert. Nach 24 h wurden die Tiere getötet und der Cholesterolgehalt in der Leber bestimmt. Cholesterol wurde nach der Liebermann-Burchard-Methode mit der Testkombination von Boehringer Mannheim bestimmt. Kontrolltiere erhielten ein entsprechendes Volumen Cholesterol-Traganth-Suspension ohne Testsubstanz. Zur Kontrolle des Cholesterol-Anstiegs als Folge der Cholesterol-Belastung wurde einer weiteren Kontrollgruppe Traganth-Suspension ohne Cholesterol oral appliziert.

| Compound | Verminderung des Lebercholesterinanstiegs im Vergleich zur Kontrolle nach oraler Cholesterinbelastung in Prozent |
| --- | --- |
| C=CCC1C(N2CCN(c3ccccc3)CC2)=NC(C)=C(c2ccccc2)C1c1ccccc1 (stereo not drawn) [Beispiel 21] | 34,9% |
| CC1=C(c2ccc(N(C)C)cc2)C(c2ccc(CO)cc2)CC(N2CCN(c3ccccc3)CC2)=N1 (stereo not drawn) [Beispiel 16] | 36,7% |
| CC1=C(c2cccc(CO)c2)C(c2cccc(CO)c2)CC(N2CCN(c3ccccc3)CC2)=N1 (stereo not drawn) [Beispiel 13] | 37,9% |
| Clc1ccc(C2CC(N3CCN(c4ccccc4)CC3)=NC3=C2c2ccccc2CC3)cc1 (stereo not drawn) [Beispiel 1, 4-(4-Chlorphenyl)-2-(4-phenylpiperazino)-3,4,5,6-tetrahydronaphthalino(a)pyridin] | 51,7% |
| CC1=C(c2ccccc2)C(c2cccc(COC(=O)CCCC(=O)O)c2)CC(N2CCN(c3ccccc3)CC2)=N1 (stereo not drawn) [Beispiel 19, 4-(3-(5-Carboxybutyryloxymethyl)-phenyl)-6-methyl-5-phenyl-2-(4-phenylpiperazino)-3,4-dihydropyridin] | 36,3% |
| CC1=C(c2ccc(N(C)C)cc2)C(c2ccc(Cl)cc2)C(CC(=O)OC(C)(C)C)C(N2CCN(c3ccccc3)CC2)=N1 (stereo not drawn) [Beispiel 29] | 12,0% |
| CC(=O)OCc1ccc(C2=C(C)N=C(N3CCN(c4ccccc4)CC3)CC2c2ccc(COC(C)=O)cc2)cc1 (stereo not drawn) [Beispiel 9] | 17,7% |
| 6-Methyl-2-(4-phenylpiperazino)-4,5-bis(2-pyrrolidinomethylphenyl)-3,4-dihydropyridin [Beispiel 18] | 34,1% |
| CC1=C(c2ccccc2)C(c2cccc(CN3CCCC3)c2)CC(N2CCN(c3ccccc3)CC2)=N1 (stereo not drawn) [Beispiel 17, 6-Methyl-5-phenyl-2-(4-phenylpiperazino)-4-(3-pyrro-lidinomethylphenyl)-3,4-dihydropyridin] | 22,9% |
| CC1=C(c2ccccc2)C(c2ccccc2)C(CO)C(N2CCN(c3ccccc3)CC2)=N1 (stereo not drawn) [Beispiel 34] | 23,9% |
| COc1ccc(C2=C(C)N=C(N3CCCC3)C(C)C2c2ccc(OC)cc2)cc1 (stereo not drawn) [Beispiel 25] | 22,6% |
| Clc1ccc(C2=CC(c3ccc(Cl)cc3)CC(N3CCN(c4ccccc4)CC3)=N2)cc1 (stereo not drawn) [Beispiel 8] | 21,3% |
